US20230132366A9, “METHODS FOR TREATING DYSREGULATED LIPID METABOLISM” (DENALI THERAPEUTICS INC., priority 2018, published 2023)
Numbering of substitutions follows the chain as printed. Entries after “also recorded” stand apart in the source; their conditions may differ.

How the values were obtained:
[1] = tested on: human iPSC-derived microglia (WT and TREM2 KO); experiment: In vitro lipid storage assay, lipidomics by LC/MS, iPSC microglia treated with myelin; format: cell-based; conditions: myelin 25 ug/mL 48 h, LXR agonist 10 uM; for cholesteryl ester (CE) accumulation: WT and TREM2 KO iPSC microglia
Description: Lipid analyses were performed by liquid chromatography (Shimadzu Nexera X2 system, Shimadzu Scientific Instrument, Columbia, Md., USA) coupled to electrospray mass spectrometry (QTRAP 6500+, Sciex, Framingham, Mass., USA). For each analysis, 5 μL of sample was injected on a BEH C18 1.7 μm, 2.1×100 mm column (Waters Corporation, Milford, Mass., USA) using a flow rate of 0.25 mL/min at 55° C. For positive ionization mode, mobile phase A consisted of 60:40 acetonitrile/water (v/v) with 10 mM ammonium formate+0.1% formic acid; mobile phase B consisted of 90:10 isopropyl alcohol/acetonitrile (v/v) with 10 mM ammonium formate+0.1% formic acid. For negative ionization mode, mobile phase A consisted of 60:40 acetonitrile/water (v/v) with 10 mM ammonium acetate; mobile phase B consisted of 90:10 isopropyl alcohol/acetonitrile (v/v) with 10 mM ammonium acetate. The gradient was programmed as follows: 0.0-8.0 min from 45% B to 99% B, 8.0-9.0 min at 99% B, 9.0-9.1 min to 45% B, and 9.1-10.0 min at 45% B. Electrospray ionization was performed in either positive or negative ion mode applying the following settings: curtain gas at 30; collision gas was set at medium; ion spray voltage at 5500 (positive mode) or 4500 (negative mode); temperature at 250° C. (positive mode) or 600° C. (negative mode); ion source Gas 1 at 50; ion source Gas 2 at 60. Data acquisition was performed using Analyst 1.6.3 (Sciex) in multiple reaction monitoring mode (MRM), with the following parameters: dwell time (msec) and collision energy (CE) for each species reported in Table 2 (positive mode) or Table 3 (negative mode); declustering potential (DP) at 80; entrance potential (EP) at 10 (positive mode) or −10 (negative mode); and collision cell exit potential (CXP) at 12.5 (positive mode) or −12.5 (negative mode). Lipids were identified based on their retention times and MRM properties of commercially available reference standards (Avanti Polar Lipids, Birmingham, Ala., USA). Quantification was performed using MultiQuant 3.02 (Sciex). Metabolites were normalized to either total protein amount or cell number. […]

[2] = target: T1, TREM2 (Homo sapiens, UniProt Q9NZC2); experiment: pSYK AlphaLISA in TREM2/DAP12-expressing stable HEK293 cells; format: cell-based; parameters: expressed in transfected cells; conditions: for binding to and signaling via TREM2 (overall conclusion): conclusion from pSYK and SPR studies; for pSYK levels: liposomes 30% test lipid/70% PC, or oxLDL, vs DAP12-only cells and buffer control
Description: (§1) 70 molar percent DOPC (1,2-dioleoyl-sn-glycero-3-phosphocholine, Avanti Polar Lipids) and 30 molar percent of one test lipid were combined in chloroform in a glass vial and dried under a stream of N2 gas for 1-2h, or until completely dry. Test lipids included sulfatide (Avanti), POPS (Avanti), SM (Avanti), PI (Avanti), GalCer (Avanti), PE (Echelon Biosciences), and free cholesterol (Echelon Biosciences). The lipid mixture was re-suspended in HBSS (1-2 mg/mL final lipid concentration) and vortexed for 2-3 min. Subsequently, the lipid suspension was bath sonicated for 10 minutes. For surface plasmon resonance experiments, liposomes were extruded 10 times using an Avanti mini-extruder constructed with one 100 nm pore size membrane to form small unilamellar vesicles.
HEK293 cells were transfected with a pBudCE4.1 Mammalian Expression Vector (ThermoFisher) expressing wildtype human TREM2 and DAP12, and DAP12 alone. Stable expressing clones were selected and the cell surface TREM2 expression was evaluated by flow cytometry with APC-conjugated rat-anti-human/mouse-TREM2 monoclonal (R&D MAB17291). The highest wild type TREM2 expressing clone was selected for expansion. The clones stably expressing DAP12 were analyzed by Western blot.
(§2) Activation of TREM2-dependent pSYK signaling was measured using a commercial AlphaLISA assay (PerkinElmer). HEK293 cells: Two days before the experiment, HEK293 cells stably overexpressing TREM2 and DAP12 were plated at 40,000 cells/well on 96 well poly-D-lysine-coated plate. Differentiated human macrophage and BMDM were plated at 100,000 cells/well on tissue-culture treated 96-well plates. Cells were washed once with HBSS, then 50 μL of liposome mixture was added per well. For competition experiments, hTREM2-ECD or TREM1-his (Novoprotein Scientific) was incubated with liposomes for 1 hour at room temperature before adding to cells. 5 μg/mL human-specific mouse anti-TREM2 (Abnova) or 15 μg/mL mouse-specific sheep anti-TREM2 (R&D Systems) was added to each experiment as a positive control with side-by-side isotype controls, 5 μg/mL mouse IgG3 (R&D Systems) and 15 μg/mL polyclonal sheep IgG (R&D Systems), respectively. The cell plate was then transferred to a 37° C. incubator for 5 minutes. The liposome solution was discarded and 40 uL lysis buffer (Cell Signaling Technologies, CST). Lysate was incubated at 4 C for 30 min, then either frozen at −80 C or immediately carried forward to the alpha-LISA assay. Lysates were assayed using the standard protocol for the PerkinElmer pSYK AlphaLISA kit. 10 μL of lysate/well was transferred to a white opaque 384 well Optiplate (PerkinElmer). 5 μL of Acceptor Mix (containing the working solution of acceptor beads) was added per well followed by sealing of plates with foil seals and incubation 1 hour at room temperature. 5 μL of Donor Mix (containing the working solution of donor beads) was added to each well under reduced light conditions. Plates were again sealed and incubated 1 hour at room temperature. Plates were read using AlphaLISA settings on a PerkinElmer EnVision plate reader.

[3] = target: T2, hTREM2 (Homo sapiens, UniProt Q9NZC2); experiment: Lipid binding analysis using surface plasmon resonance, hTREM2 ECD; conditions: for Response Units at the highest analyte concentration: 30% test lipid/70% PC liposomes
T2 construct: The ecto domain (residues 19-172) of TREM2 was sub cloned in the pRK vector; secretion signal from mouse Ig kappa chain V-III (amino acids 1-20) (N); made in house; host or cells: Expi293F cells (secreted, purified from the media by Ni-NTA and SEC)
T2 sequence (Q9NZC2 19-172): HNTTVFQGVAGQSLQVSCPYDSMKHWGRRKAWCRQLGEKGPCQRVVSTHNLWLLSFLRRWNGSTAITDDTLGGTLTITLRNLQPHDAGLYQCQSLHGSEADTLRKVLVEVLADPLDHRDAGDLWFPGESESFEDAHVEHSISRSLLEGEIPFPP
Description: as §1
The ecto domain (residues 19-172) of TREM2 was sub cloned in the pRK vector with the secretion signal from mouse Ig kappa chain V-III, amino acids 1-20 at the N-terminal region and a 6×-His tag at the C-terminal region. Expi293F™ cells were transfected using the Expi293™ M Expression System Kit according to the manufacturer's instructions and the media supernatant was harvested 96 hr post transfection. Harvested media was supplemented with 1M imidazole pH 8.0 to a final concentration 10 mM, filtered, and loaded on to HisPur™ Ni-NTA Resin equilibrated with load buffer (20 mM Tris pH 8.0, 150 mM NaCl and 10 mM Imidazole). Nonspecifically bound proteins were washed with load buffer supplemented with 50 and 100 mM imidazole and TREM2 ecto domain was eluted with 20 mM Tris pH 8.0, 150 mM NaCl and 200 mM Imidazole. […] Elute fractions were analyzed by SDS PAGE and further characterized by analytical size exclusion chromatography and the intact protein mass determination.
The binding analysis was performed using Series S Sensor chip L1 and Biacore T200 instrument (GE Healthcare) at 25° C. […] Recombinant hTREM2-ECD or hTREM2-R74H-ECD proteins were diluted in PBS (0, 0.19, 0.56, 1.7, 5, and 15 μM) and injected over both flow cells for 60 seconds at 30 μl/min, and dissociation was monitored for additional 2 minutes. […]

[4] = target: T1, TREM2; experiment: pSYK AlphaLISA in human macrophages; format: cell-based; parameters: a system with endogenous expression of TREM2/DAP12; endogenous in cells; host or cells: macrophages differentiated from human peripheral blood monocytes (2-5 donors); conditions: for pSYK levels, titration: liposome or oxLDL titration
Description: as §1
as §2, with “Lysates were assayed using the standard protocol for the PerkinElmer pSYK AlphaLISA kit. 10 μL of lysate/well was transferred to a white opaque 384 well Optiplate (PerkinElmer). 5 μL of Acceptor Mix (containing the working solution of acceptor beads) was added per well followed by sealing of plates with foil seals and incubation 1 hour at room temperature. 5 μL of Donor Mix (containing the working solution of donor beads) was added to each well under reduced light conditions. Plates were again sealed and incubated 1 hour at room temperature.” left out, “reader. […]” for “reader.”

[5] = target: T3, hTREM2 R47H (Homo sapiens, UniProt Q9NZC2, R47H); experiment: Lipid binding analysis using surface plasmon resonance, hTREM2 R47H ECD; conditions: for Response Units at the highest analyte concentration: 30% test lipid/70% PC liposomes; for Kd: 30% test lipid/70% PC liposomes on L1 chip, 25° C., steady-state; for faster off-rate of R47H variant vs hTREM2: SPR kinetic analysis
T3 construct: The ecto domain (residues 19-172) of TREM2 was sub cloned in the pRK vector; secretion signal from mouse Ig kappa chain V-III (amino acids 1-20) (N); made in house; host or cells: Expi293F cells (secreted, purified from the media by Ni-NTA and SEC)
T3 sequence (Q9NZC2 19-172 R47H): T2 sequence (Q9NZC2 19-172) with R29H
Description: as §1
The ecto domain (residues 19-172) of TREM2 was sub cloned in the pRK vector with the secretion signal from mouse Ig kappa chain V-III, amino acids 1-20 at the N-terminal region and a 6×-His tag at the C-terminal region. Expi293F™ cells were transfected using the Expi293™ M Expression System Kit according to the manufacturer's instructions and the media supernatant was harvested 96 hr post transfection. Harvested media was supplemented with 1M imidazole pH 8.0 to a final concentration 10 mM, filtered, and loaded on to HisPur™ Ni-NTA Resin equilibrated with load buffer (20 mM Tris pH 8.0, 150 mM NaCl and 10 mM Imidazole). Nonspecifically bound proteins were washed with load buffer supplemented with 50 and 100 mM imidazole and TREM2 ecto domain was eluted with 20 mM Tris pH 8.0, 150 mM NaCl and 200 mM Imidazole. Eluted protein was pooled and subjected to size exclusion chromatography onto a HiLoad Superdex 75 16/600 column using 1×PBS as the running buffer. Elute fractions were analyzed by SDS PAGE and further characterized by analytical size exclusion chromatography and the intact protein mass determination.
The binding analysis was performed using Series S Sensor chip L1 and Biacore T200 instrument (GE Healthcare) at 25° C. Before coating with lipids, the sensor surfaces were washed with 1 minute injection of 40 μM 3-[(3cholamidopropyl)dimethylammonio]-1-propanesulfonate (CHAPS) and 40 uM of 0-octylglucoside at a flow rate of 30 μl/min. Residual detergent on the sensor surfaces was washed away by 30 second injection of 30% ethanol. 1 mg/ml Sulfatide/DOPC or PS/DOPC small unilamellar vesicles were injected for 15 minutes at 5 μl/min over the second flow cell. First flow cell was coated with DOPC and served as a reference surface. Loosely bound vesicles were washed away with two short pulses (15 s) of 10 mM NaOH at 30 μl/min followed by injection of 0.1 mg/ml bovine serum albumin for 3 minutes to block poorly-coated surface. Recombinant hTREM2-ECD or hTREM2-R74H-ECD proteins were diluted in PBS (0, 0.19, 0.56, 1.7, 5, and 15 μM) and injected over both flow cells for 60 seconds at 30 μl/min, and dissociation was monitored for additional 2 minutes. Between each measurement the lipids surface was regenerated by injection of 10 mM NaOH. Steady-state affinities were obtained by fitting the response at equilibrium against the concentration using Biacore™ T200 Evaluation Software v3.1

T1 sequence (Q9NZC2 19-230): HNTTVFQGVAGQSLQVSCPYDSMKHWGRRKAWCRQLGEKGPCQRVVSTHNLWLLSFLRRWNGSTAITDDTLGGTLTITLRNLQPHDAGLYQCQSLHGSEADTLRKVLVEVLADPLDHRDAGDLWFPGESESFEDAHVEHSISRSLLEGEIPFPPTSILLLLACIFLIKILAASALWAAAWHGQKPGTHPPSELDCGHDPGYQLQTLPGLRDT
T1 sequence (O43914 22-113 partner): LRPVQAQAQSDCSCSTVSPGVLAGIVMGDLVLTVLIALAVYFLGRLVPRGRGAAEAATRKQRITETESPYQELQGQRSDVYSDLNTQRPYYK

Compound: O=C(O)Cc1cccc(OCCCN(Cc2cccc(C(F)(F)F)c2Cl)CC(c2ccccc2)c2ccccc2)c1 [GW3965]
- cholesterol levels ([1]; TREM2 KO iPSC microglia): not rescued
- cholesteryl ester (CE) accumulation [1]: rescued; also recorded: reduced
- cholesteryl ester (CE) accumulation ([1]; listed as GW3695): rescued the accumulation of all CE species measured

Compound: galactosylceramide [GalCer]
- binding to and signaling via TREM2 (overall conclusion) [2]: did not appear to bind and signal via TREM2

Compound: phosphatidylethanolamine [PE]
- binding to and signaling via TREM2 (overall conclusion) [2]: did not appear to bind and signal via TREM2

Compound: phosphatidylinositol [PI]
- binding to and signaling via TREM2 (overall conclusion) [2]: did not appear to bind and signal via TREM2
- pSYK levels [2]: significantly increased pSYK levels

Compound: phosphatidylserine [PS]
- Response Units at the highest analyte concentration [3]: 631 RU
- pSYK levels, titration [4]: dose-dependent increases in pSYK levels
- Response Units at the highest analyte concentration [5]: 267 RU
- Kd [5]: 14 µM
- faster off-rate of R47H variant vs hTREM2 [5]: 2.4 fold

Compound: sphingomyelin [SM]
- binding to and signaling via TREM2 (overall conclusion) [2]: did not appear to bind and signal via TREM2

Compound: sulfatide
- Response Units at the highest analyte concentration [3]: 704 RU
- Kd ([3]; 30% test lipid/70% PC liposomes on L1 chip, 25° C., steady-state): 6.8 µM
- binding to and signaling via TREM2 (overall conclusion) [2]: binds and signals via TREM2
- pSYK levels [2]: significantly increased pSYK levels
- pSYK increase with recombinant TREM2 ECD competition ([4]; 3 μM recombinant TREM2-ECD): reduced to baseline levels
- pSYK levels, titration [4]: dose-dependent increases in pSYK levels
- Response Units at the highest analyte concentration [5]: 191 RU
- Kd [5]: 20 µM
- faster off-rate of R47H variant vs hTREM2 [5]: 5 fold
